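A five-concentration, 48-hour dose response in 96-well plates underlies each endpoint, interpolated linearly between surrounding concentrations. GI50 = concentration required for 50% inhibition of growth. TGI: total growth inhibition.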
Columns and labels:
Assay in all cases: NCI tumour cell line growth inhibition, 48 h
786-0 renal = tested on: 786-0 renal
A498 renal = tested on: A498 renal
A549 NSCLC = tested on: A549 NSCLC
ACHN renal = tested on: ACHN renal
BT-549 breast = tested on: BT-549 breast
CAKI-1 renal = tested on: CAKI-1 renal
CCRF-CEM leukemia = tested on: CCRF-CEM leukemia
COLO 205 colon = tested on: COLO 205 colon
DU-145 prostate = tested on: DU-145 prostate
EKVX NSCLC = tested on: EKVX NSCLC
HCC-2998 colon = tested on: HCC-2998 colon
HCT-116 colon = tested on: HCT-116 colon
HCT-15 colon = tested on: HCT-15 colon
HL-60(TB) leukemia = tested on: HL-60(TB) leukemia
HOP-62 NSCLC = tested on: HOP-62 NSCLC
HOP-92 NSCLC = tested on: HOP-92 NSCLC
HS 578T breast = tested on: HS 578T breast
HT29 colon = tested on: HT29 colon
IGROV1 ovarian = tested on: IGROV1 ovarian
K-562 leukemia = tested on: K-562 leukemia
KM12 colon = tested on: KM12 colon
LOX IMVI melanoma = tested on: LOX IMVI melanoma
M14 melanoma = tested on: M14 melanoma
MALME-3M melanoma = tested on: MALME-3M melanoma
MCF7 breast = tested on: MCF7 breast
MDA-MB-231 breast = tested on: MDA-MB-231 breast
MDA-MB-435 = tested on: MDA-MB-435
MOLT-4 leukemia = tested on: MOLT-4 leukemia
NCI-H226 lung = tested on: NCI-H226 lung
NCI-H23 lung = tested on: NCI-H23 lung
NCI-H460 lung = tested on: NCI-H460 lung
NCI-H522 lung = tested on: NCI-H522 lung
NCI/ADR-RES ovarian = tested on: NCI/ADR-RES ovarian
OVCAR-3 ovarian = tested on: OVCAR-3 ovarian
OVCAR-4 ovarian = tested on: OVCAR-4 ovarian
OVCAR-5 ovarian = tested on: OVCAR-5 ovarian
OVCAR-8 ovarian = tested on: OVCAR-8 ovarian
PC-3 prostate = tested on: PC-3 prostate
RPMI-8226 leukemia = tested on: RPMI-8226 leukemia
RXF 393 renal = tested on: RXF 393 renal
SF-268 CNS = tested on: SF-268 CNS
SF-295 CNS = tested on: SF-295 CNS
SF-539 CNS = tested on: SF-539 CNS
SK-MEL-2 melanoma = tested on: SK-MEL-2 melanoma
SK-MEL-28 melanoma = tested on: SK-MEL-28 melanoma
SK-MEL-5 melanoma = tested on: SK-MEL-5 melanoma
SK-OV-3 ovarian = tested on: SK-OV-3 ovarian
SN12C renal = tested on: SN12C renal
SNB-19 CNS = tested on: SNB-19 CNS
SNB-75 CNS = tested on: SNB-75 CNS
SR leukemia = tested on: SR leukemia
SW-620 colon = tested on: SW-620 colon
T-47D breast = tested on: T-47D breast
TK-10 renal = tested on: TK-10 renal
U251 CNS = tested on: U251 CNS
UACC-257 melanoma = tested on: UACC-257 melanoma
UACC-62 melanoma = tested on: UACC-62 melanoma
UO-31 renal = tested on: UO-31 renal
MDA-N = tested on: MDA-N

O=C(CCl)Nc1ccc2c(Nc3cc(O)ccc3Cl)ncnc2c1
GI50 (786-0 renal): 1.24 µM
TGI (786-0 renal): 4.56 µM
GI50 (A498 renal): 5.51 µM
TGI (A498 renal): 11.1 µM
GI50 (A549 NSCLC): 4.08 µM
TGI (A549 NSCLC): 8.26 µM
GI50 (ACHN renal): 2.87 µM
TGI (ACHN renal): 6.52 µM
GI50 (BT-549 breast): 2.02 µM
TGI (BT-549 breast): 5.81 µM
GI50 (CAKI-1 renal): 3.36 µM
TGI (CAKI-1 renal): 7.45 µM
GI50 (CCRF-CEM leukemia): 0.892 µM
TGI (CCRF-CEM leukemia): 3.02 µM
GI50 (COLO 205 colon): 4.03 µM
TGI (COLO 205 colon): 8.06 µM
GI50 (DU-145 prostate): 2.39 µM
TGI (DU-145 prostate): 5.36 µM
GI50 (EKVX NSCLC): 3.03 µM
TGI (EKVX NSCLC): 6.87 µM
GI50 (HCC-2998 colon): 4.9 µM
TGI (HCC-2998 colon): 9.81 µM
GI50 (HCT-116 colon): 0.93 µM
TGI (HCT-116 colon): 3.99 µM
GI50 (HCT-15 colon): 0.773 µM
TGI (HCT-15 colon): 3.32 µM
GI50 (HL-60(TB) leukemia): 1.15 µM
TGI (HL-60(TB) leukemia): 4.88 µM
GI50 (HOP-62 NSCLC): 3.27 µM
TGI (HOP-62 NSCLC): 7.17 µM
GI50 (HOP-92 NSCLC): 4.86 µM
TGI (HOP-92 NSCLC): 9.38 µM
GI50 (HS 578T breast): 3.27 µM
TGI (HS 578T breast): 15.2 µM
GI50 (HT29 colon): 1.93 µM
TGI (HT29 colon): 5.78 µM
GI50 (IGROV1 ovarian): 2.12 µM
TGI (IGROV1 ovarian): 6.32 µM
GI50 (K-562 leukemia): 0.929 µM
TGI (K-562 leukemia): 7.23 µM
GI50 (KM12 colon): 3.23 µM
TGI (KM12 colon): 7.11 µM
GI50 (LOX IMVI melanoma): 0.818 µM
TGI (LOX IMVI melanoma): 3.64 µM
GI50 (M14 melanoma): 3.3 µM
TGI (M14 melanoma): 7.26 µM
GI50 (MALME-3M melanoma): 3.9 µM
TGI (MALME-3M melanoma): 8.1 µM
GI50 (MCF7 breast): 1.07 µM
TGI (MCF7 breast): 5 µM
GI50 (MDA-MB-231 breast): 2.75 µM
TGI (MDA-MB-231 breast): 6.25 µM
GI50 (MDA-MB-435): 2.21 µM
TGI (MDA-MB-435): 5.75 µM
GI50 (MOLT-4 leukemia): 0.846 µM
TGI (MOLT-4 leukemia): 4.03 µM
GI50 (NCI-H226 lung): 5.86 µM
TGI (NCI-H226 lung): 12.3 µM
GI50 (NCI-H23 lung): 2.73 µM
TGI (NCI-H23 lung): 7.1 µM
GI50 (NCI-H460 lung): 2.33 µM
TGI (NCI-H460 lung): 6.4 µM
GI50 (NCI-H522 lung): 0.664 µM
TGI (NCI-H522 lung): 2.12 µM
GI50 (NCI/ADR-RES ovarian): 3.55 µM
TGI (NCI/ADR-RES ovarian): 9.31 µM
GI50 (OVCAR-3 ovarian): 1.71 µM
TGI (OVCAR-3 ovarian): 5.2 µM
GI50 (OVCAR-4 ovarian): 3.09 µM
TGI (OVCAR-4 ovarian): 7.44 µM
GI50 (OVCAR-5 ovarian): 3.4 µM
TGI (OVCAR-5 ovarian): 7.03 µM
GI50 (OVCAR-8 ovarian): 3.71 µM
TGI (OVCAR-8 ovarian): 10.1 µM
GI50 (PC-3 prostate): 3.02 µM
TGI (PC-3 prostate): 6.79 µM
GI50 (RPMI-8226 leukemia): 2.94 µM
TGI (RPMI-8226 leukemia): 7.66 µM
GI50 (RXF 393 renal): 3.37 µM
TGI (RXF 393 renal): 7.13 µM
GI50 (SF-268 CNS): 2.65 µM
TGI (SF-268 CNS): 6.63 µM
GI50 (SF-295 CNS): 2.58 µM
TGI (SF-295 CNS): 5.96 µM
GI50 (SF-539 CNS): 3.38 µM
TGI (SF-539 CNS): 6.84 µM
GI50 (SK-MEL-2 melanoma): 3.65 µM
TGI (SK-MEL-2 melanoma): 8.19 µM
GI50 (SK-MEL-28 melanoma): 3.66 µM
TGI (SK-MEL-28 melanoma): 7.97 µM
GI50 (SK-MEL-5 melanoma): 3.22 µM
TGI (SK-MEL-5 melanoma): 6.76 µM
GI50 (SK-OV-3 ovarian): 4.24 µM
TGI (SK-OV-3 ovarian): 7.94 µM
GI50 (SN12C renal): 1.21 µM
TGI (SN12C renal): 4.06 µM
GI50 (SNB-19 CNS): 2.14 µM
TGI (SNB-19 CNS): 5.22 µM
GI50 (SNB-75 CNS): 3.28 µM
TGI (SNB-75 CNS): 6.56 µM
GI50 (SR leukemia): 0.758 µM
TGI (SR leukemia): 3.72 µM
GI50 (SW-620 colon): 1.14 µM
TGI (SW-620 colon): 3.79 µM
GI50 (T-47D breast): 3.51 µM
TGI (T-47D breast): 7.72 µM
GI50 (TK-10 renal): 3.87 µM
TGI (TK-10 renal): 8.23 µM
GI50 (U251 CNS): 0.828 µM
TGI (U251 CNS): 2.97 µM
GI50 (UACC-257 melanoma): 4.02 µM
TGI (UACC-257 melanoma): 8.44 µM
GI50 (UACC-62 melanoma): 2.38 µM
TGI (UACC-62 melanoma): 5.98 µM
GI50 (UO-31 renal): 2.69 µM
TGI (UO-31 renal): 6 µM

CC[C@H](CC[C@@H](C)[C@H]1CC[C@H]2[C@@H]3CC=C4C[C@@H](O)CC[C@]4(C)[C@H]3CC[C@]12C)C(C)C
TGI (786-0 renal): > 100 µM
TGI (A549 NSCLC): > 100 µM
TGI (ACHN renal): > 100 µM
TGI (CAKI-1 renal): > 100 µM
TGI (CCRF-CEM leukemia): > 100 µM
TGI (COLO 205 colon): > 100 µM
TGI (DU-145 prostate): > 100 µM
TGI (EKVX NSCLC): > 100 µM
TGI (HCC-2998 colon): > 100 µM
TGI (HCT-116 colon): > 100 µM
TGI (HCT-15 colon): > 100 µM
TGI (HOP-62 NSCLC): > 100 µM
TGI (HOP-92 NSCLC): > 100 µM
TGI (HS 578T breast): > 100 µM
TGI (HT29 colon): > 100 µM
TGI (IGROV1 ovarian): > 100 µM
TGI (K-562 leukemia): > 100 µM
TGI (KM12 colon): > 100 µM
TGI (LOX IMVI melanoma): > 100 µM
TGI (M14 melanoma): > 100 µM
TGI (MALME-3M melanoma): > 100 µM
TGI (MCF7 breast): > 100 µM
TGI (MDA-MB-231 breast): > 100 µM
TGI (MDA-MB-435): > 100 µM
TGI (MDA-N): > 100 µM
TGI (MOLT-4 leukemia): > 100 µM
TGI (NCI-H226 lung): > 100 µM
TGI (NCI-H23 lung): > 100 µM
TGI (NCI-H460 lung): > 100 µM
TGI (NCI-H522 lung): > 100 µM
TGI (NCI/ADR-RES ovarian): > 100 µM
TGI (OVCAR-3 ovarian): > 100 µM
TGI (OVCAR-4 ovarian): > 100 µM
TGI (OVCAR-5 ovarian): > 100 µM
TGI (OVCAR-8 ovarian): > 100 µM
TGI (PC-3 prostate): > 100 µM
TGI (RPMI-8226 leukemia): > 100 µM
TGI (SF-268 CNS): > 100 µM
TGI (SF-295 CNS): > 100 µM
TGI (SF-539 CNS): > 100 µM
TGI (SK-MEL-2 melanoma): > 100 µM
TGI (SK-MEL-28 melanoma): > 100 µM
TGI (SK-MEL-5 melanoma): > 100 µM
TGI (SN12C renal): > 100 µM
TGI (SNB-19 CNS): > 100 µM
TGI (SNB-75 CNS): > 100 µM
TGI (SW-620 colon): > 100 µM
TGI (TK-10 renal): > 100 µM
TGI (U251 CNS): > 100 µM
TGI (UACC-257 melanoma): > 100 µM
TGI (UO-31 renal): > 100 µM
